Source: publication PMC10712727, “Safety, Tolerability, and Pharmacokinetics of Senaparib, a Novel PARP1/2 Inhibitor, in Chinese Patients With Advanced Solid Tumors: A Phase I Trial” (The Oncologist, 2023)

Tested on: patients with advanced solid tumors
Assay: Safety: treatment-emergent and senaparib-related adverse events graded per NCI CTCAE v4.03
Assay type: in vivo
Conditions: TEAE
Description: This phase I, open-label, multicenter, dose-escalation, and dose-expansion study was conducted at three national clinical institutions in China. […] At baseline, all patients enrolled in the dose-escalation phase had to have at least one evaluable lesion, and those in the dose-expansion period had to have at least one measurable lesion, according to Response Evaluation Criteria in Solid Tumors version 1.1 (RECIST v1.1).[16] Entry to the dose-expansion cohort required the presence of a BRCA mutation, with the exception of patients with ovarian carcinoma, fallopian tube carcinoma, and primary peritoneal carcinoma. Full study eligibility criteria are provided in Supplementary Table S1.
Dose escalation was conducted using a modified Fibonacci 3 + 3 method (Supplementary Fig. S1).[17] Patients were administered oral senaparib from a planned starting dose of 2 mg once daily (QD), with preliminary dose escalation to 120 mg via nine dose groups, in order of their entry into the study. At a given dose level, each patient received a single dose of senaparib followed by a 7-day washout period. They then entered a continuous dosing period to confirm the safety and PK profile, in which they received senaparib QD from day 1 to day 21 of each 3-week cycle. Progression to the next higher dose required approval from the Data Safety Monitoring Committee (DSMC) upon review of the safety and PK data of the previous dose. A 50-mg twice-daily (BID) dosing group was added (planned enrollment, n = 6 patients) based on a DSMC review of the safety, PK, and efficacy analysis of the completed QD dose groups in the phase I clinical trial of senaparib dose escalation in Australia (NCT03507543), which commenced prior to the start of this trial.
The dose-expansion period included 3 populations: dose groups in which at least one patient achieved complete response (CR) or partial response (PR) per RECIST v1.1[16] and 1 dose group higher (evaluated for safety), as well as the dose group at the maximum tolerated dose (MTD)/recommended phase II dose (RP2D). Each of these groups included those patients in the respective dose-escalation group plus a planned additional 10 patients (approximately 20 patients in the MTD/RP2D group) with BRCA^mut+ solid tumors (ovarian, breast, or prostate cancer were preferred, and ovarian cancer could be BRCA wild type). Patients received senaparib monotherapy orally QD or BID (50-mg dose only) over each 3-week cycle until disease progression or unacceptable toxicity.
DLTs were predefined toxicities (Supplementary Table S2) recorded over the 7 days following the single-dose administration of senaparib and during the first treatment cycle (day 1-day 21) for each dose group in the dose-escalation period only. The MTD was defined as the maximum dose at which ≤1/6 patients experienced a DLT. Senaparib PK parameters were derived from blood samples collected from patients after the single administration, and at regular intervals during the first cycle of the dose-escalation and dose-expansion periods. Plasma concentrations of senaparib were determined using high-performance liquid chromatography-tandem mass spectrometry. Tumor response was assessed every 6 weeks per RECIST v1.1,[16] recording objective response rate (ORR), disease control rate (DCR), duration of response (DOR), and progression-free survival (PFS) by dose level for all patients and for those harboring BRCA^mut+ tumors.

SMILES: O=C(c1cc(Cn2c(=O)[nH]c(=O)c3c(F)cccc32)ccc1F)N1CCN(c2ncccn2)CC1 [Senaparib]
- Vomiting, Gr≥3 (10 mg QD n = 3): 0 n (%)
- WBC decreased, All (10 mg QD n = 3): 1 (33.3) n (%)
- WBC decreased, Gr≥3 (10 mg QD n = 3): 0 n (%)
- ALT increased, All (20 mg QD n = 5): 0 n (%)
- ALT increased, Gr≥3 (20 mg QD n = 5): 0 n (%)
- AST increased, All (20 mg QD n = 5): 0 n (%)
- AST increased, Gr≥3 (20 mg QD n = 5): 0 n (%)
- Abdominal distension, All (20 mg QD n = 5): 1 (20.0) n (%)
- Abdominal distension, Gr≥3 (20 mg QD n = 5): 0 n (%)
- Anemia (incl. hemoglobin decreased), All (20 mg QD n = 5): 1 (20.0) n (%)
- Anemia (incl. hemoglobin decreased), Gr≥3 (20 mg QD n = 5): 1 (20.0) n (%)
- Appetite decreased, All (20 mg QD n = 5): 1 (20.0) n (%)
- Appetite decreased, Gr≥3 (20 mg QD n = 5): 0 n (%)
- Asthenia, All (20 mg QD n = 5): 1 (20.0) n (%)
- Asthenia, Gr≥3 (20 mg QD n = 5): 0 n (%)
- Blood bilirubin increased, All (20 mg QD n = 5): 0 n (%)
- Blood bilirubin increased, Gr≥3 (20 mg QD n = 5): 0 n (%)
- Blood creatinine increased, All (20 mg QD n = 5): 1 (20.0) n (%)
- Blood creatinine increased, Gr≥3 (20 mg QD n = 5): 0 n (%)
- Hypokalemia, All (20 mg QD n = 5): 1 (20.0) n (%)
- Hypokalemia, Gr≥3 (20 mg QD n = 5): 0 n (%)
- Hyponatremia, All (20 mg QD n = 5): 0 n (%)
- Hyponatremia, Gr≥3 (20 mg QD n = 5): 0 n (%)
- Nausea, All (20 mg QD n = 5): 1 (20.0) n (%)
- Nausea, Gr≥3 (20 mg QD n = 5): 0 n (%)
- Neutrophil count decreased, All (20 mg QD n = 5): 0 n (%)
- Neutrophil count decreased, Gr≥3 (20 mg QD n = 5): 0 n (%)
- Pain in extremity, All (20 mg QD n = 5): 1 (20.0) n (%)
- Pain in extremity, Gr≥3 (20 mg QD n = 5): 1 (20.0) n (%)
- Platelet count decreased, All (20 mg QD n = 5): 1 (20.0) n (%)
- Platelet count decreased, Gr≥3 (20 mg QD n = 5): 0 n (%)
- Protein in urine, All (20 mg QD n = 5): 1 (20.0) n (%)
- Protein in urine, Gr≥3 (20 mg QD n = 5): 0 n (%)
- Vomiting, All (20 mg QD n = 5): 0 n (%)
- Vomiting, Gr≥3 (20 mg QD n = 5): 0 n (%)
- WBC decreased, All (20 mg QD n = 5): 1 (20.0) n (%)
- WBC decreased, Gr≥3 (20 mg QD n = 5): 0 n (%)
- ALT increased, All (40 mg QD n = 3): 0 n (%)
- ALT increased, Gr≥3 (40 mg QD n = 3): 0 n (%)
- AST increased, All (40 mg QD n = 3): 0 n (%)
- AST increased, Gr≥3 (40 mg QD n = 3): 0 n (%)
- Abdominal distension, All (40 mg QD n = 3): 0 n (%)
- Abdominal distension, Gr≥3 (40 mg QD n = 3): 0 n (%)
- Anemia (incl. hemoglobin decreased), All (40 mg QD n = 3): 1 (33.3) n (%)
- Anemia (incl. hemoglobin decreased), Gr≥3 (40 mg QD n = 3): 0 n (%)
- Appetite decreased, All (40 mg QD n = 3): 0 n (%)
- Appetite decreased, Gr≥3 (40 mg QD n = 3): 0 n (%)
- Asthenia, All (40 mg QD n = 3): 1 (33.3) n (%)
- Asthenia, Gr≥3 (40 mg QD n = 3): 0 n (%)
- Blood bilirubin increased, All (40 mg QD n = 3): 0 n (%)
- Blood bilirubin increased, Gr≥3 (40 mg QD n = 3): 0 n (%)
- Blood creatinine increased, All (40 mg QD n = 3): 1 (33.3) n (%)
- Blood creatinine increased, Gr≥3 (40 mg QD n = 3): 0 n (%)
- Hypokalemia, All (40 mg QD n = 3): 0 n (%)
- Hypokalemia, Gr≥3 (40 mg QD n = 3): 0 n (%)
- Hyponatremia, All (40 mg QD n = 3): 0 n (%)
- Hyponatremia, Gr≥3 (40 mg QD n = 3): 0 n (%)
- Nausea, All (40 mg QD n = 3): 0 n (%)
- Nausea, Gr≥3 (40 mg QD n = 3): 0 n (%)
- Neutrophil count decreased, All (40 mg QD n = 3): 0 n (%)
- Neutrophil count decreased, Gr≥3 (40 mg QD n = 3): 0 n (%)
- Pain in extremity, All (40 mg QD n = 3): 0 n (%)
- Pain in extremity, Gr≥3 (40 mg QD n = 3): 0 n (%)
- Platelet count decreased, All (40 mg QD n = 3): 0 n (%)
- Platelet count decreased, Gr≥3 (40 mg QD n = 3): 0 n (%)
- Protein in urine, All (40 mg QD n = 3): 0 n (%)
- Protein in urine, Gr≥3 (40 mg QD n = 3): 0 n (%)
- Vomiting, All (40 mg QD n = 3): 0 n (%)
- Vomiting, Gr≥3 (40 mg QD n = 3): 0 n (%)
- WBC decreased, All (40 mg QD n = 3): 0 n (%)
- WBC decreased, Gr≥3 (40 mg QD n = 3): 0 n (%)
- ALT increased, All (50 mg BID n = 4): 1 (25.0) n (%)
- ALT increased, Gr≥3 (50 mg BID n = 4): 0 n (%)
- AST increased, All (50 mg BID n = 4): 1 (25.0) n (%)
- AST increased, Gr≥3 (50 mg BID n = 4): 0 n (%)
- Abdominal distension, All (50 mg BID n = 4): 0 n (%)
- Abdominal distension, Gr≥3 (50 mg BID n = 4): 0 n (%)
- Anemia (incl. hemoglobin decreased), All (50 mg BID n = 4): 3 (75.0) n (%)
- Anemia (incl. hemoglobin decreased), Gr≥3 (50 mg BID n = 4): 2 (50.0) n (%)
- Appetite decreased, All (50 mg BID n = 4): 0 n (%)
- Appetite decreased, Gr≥3 (50 mg BID n = 4): 0 n (%)
- Asthenia, All (50 mg BID n = 4): 1 (25.0) n (%)
- Asthenia, Gr≥3 (50 mg BID n = 4): 0 n (%)
- Blood bilirubin increased, All (50 mg BID n = 4): 0 n (%)
- Blood bilirubin increased, Gr≥3 (50 mg BID n = 4): 0 n (%)
- Blood creatinine increased, All (50 mg BID n = 4): 0 n (%)
- Blood creatinine increased, Gr≥3 (50 mg BID n = 4): 0 n (%)
- Hypokalemia, All (50 mg BID n = 4): 0 n (%)
- Hypokalemia, Gr≥3 (50 mg BID n = 4): 0 n (%)
- Hyponatremia, All (50 mg BID n = 4): 3 (75.0) n (%)
- Hyponatremia, Gr≥3 (50 mg BID n = 4): 1 (25.0) n (%)
- Nausea, All (50 mg BID n = 4): 2 (50.0) n (%)
- Nausea, Gr≥3 (50 mg BID n = 4): 0 n (%)
- Neutrophil count decreased, All (50 mg BID n = 4): 0 n (%)
- Neutrophil count decreased, Gr≥3 (50 mg BID n = 4): 0 n (%)
- Pain in extremity, All (50 mg BID n = 4): 0 n (%)
- Pain in extremity, Gr≥3 (50 mg BID n = 4): 0 n (%)
- Platelet count decreased, All (50 mg BID n = 4): 1 (25.0) n (%)
- Platelet count decreased, Gr≥3 (50 mg BID n = 4): 0 n (%)
- Protein in urine, All (50 mg BID n = 4): 0 n (%)
- Protein in urine, Gr≥3 (50 mg BID n = 4): 0 n (%)
- Vomiting, All (50 mg BID n = 4): 2 (50.0) n (%)
- Vomiting, Gr≥3 (50 mg BID n = 4): 0 n (%)
- WBC decreased, All (50 mg BID n = 4): 2 (50.0) n (%)
- WBC decreased, Gr≥3 (50 mg BID n = 4): 0 n (%)
- ALT increased, All (60 mg QD n = 5): 0 n (%)
- ALT increased, Gr≥3 (60 mg QD n = 5): 0 n (%)
- AST increased, All (60 mg QD n = 5): 0 n (%)
- AST increased, Gr≥3 (60 mg QD n = 5): 0 n (%)
- Abdominal distension, All (60 mg QD n = 5): 2 (40.0) n (%)
- Abdominal distension, Gr≥3 (60 mg QD n = 5): 0 n (%)
- Anemia (incl. hemoglobin decreased), All (60 mg QD n = 5): 0 n (%)
- Anemia (incl. hemoglobin decreased), Gr≥3 (60 mg QD n = 5): 0 n (%)
- Appetite decreased, All (60 mg QD n = 5): 1 (20.0) n (%)
- Appetite decreased, Gr≥3 (60 mg QD n = 5): 0 n (%)
- Asthenia, All (60 mg QD n = 5): 1 (20.0) n (%)
